Data reported in patent US8076487B2, “Pyridone derivative and herbicide” (Kumiai Chemical Industry Co., Ltd., priority 2006, dated 2011).

Legend:
Format in all cases: in vivo
[1] = tested on: velvetleaf (Abutilon theophrasti medicus); assay: Test Example 2: herbicidal effect by soil application to upland field; details: soil surface spray, upland field soil, 1,000 g active ingredient per hectare, 21st day after application
Outline: (§1)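 Pre-emergence soil test: seeds sown in pots of field soil, then wettable-powder formulation sprayed on soil surface at 1,000 g active ingredient per hectare in 1,000 L water per hectare. Plants grown in greenhouse; herbicidal effect scored on a standard scale at day 21.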

[2] = tested on: green foxtail (Setaria viridis (L.) P. Beauv.); assay: as above; details: soil surface spray, upland field soil, 1,000 g active ingredient per hectare, 21st day after application
Outline: as §1

[3] = tested on: slender amaranth (Amaranthus viridis L.); assay: as above; details: soil surface spray, upland field soil, 1,000 g active ingredient per hectare, 21st day after application
Outline: as §1

[4] = tested on: barnyardgrass (Echinochloa crus-galli (L.) P. Beauv. var. crus-galli); assay: as above; details: soil surface spray, upland field soil, 1,000 g active ingredient per hectare, 21st day after application
Outline: as §1

[5] = tested on: velvetleaf (Abutilon theophrasti medicus); assay: Test Example 3: herbicidal effect by application to upland field (foliage treatment); details: foliage treatment, 1,000 g active ingredient per 1 hectare, 14th day after application, greenhouse
Outline: (§2)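 Effect scores come from a standard grading 14 days after plants, grown from seed for two weeks in field soil in a greenhouse, were sprayed over the top with wettable powder in water at 1,000 g active ingredient per hectare.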

[6] = tested on: green foxtail (Setaria viridis (L.) P. Beauv.); assay: as above; details: foliage treatment, 1,000 g active ingredient per 1 hectare, 14th day after application, greenhouse
Outline: as §2

[7] = tested on: slender amaranth (Amaranthus viridis L.); assay: as above; details: foliage treatment, 1,000 g active ingredient per 1 hectare, 14th day after application, greenhouse
Outline: as §2

[8] = tested on: barnyardgrass (Echinochloa crus-galli (L.) P. Beauv. var. crus-galli); assay: as above; details: foliage treatment, 1,000 g active ingredient per 1 hectare, 14th day after application, greenhouse
Outline: as §2

[9] = tested on: early watergrass (Echinochloa oryzicola Vasing); assay: Test Example 1: herbicidal effect by soil application to paddy field; details: paddy field soil application; active ingredient 1,000 g per 1 hectare; wettable powder added dropwise to water surface the day after sowing; examined on the 21st day after application
Outline: (§3)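 Under greenhouse conditions, seeds sown on puddled paddy soil in 100 cm2 pots under 3 cm of standing water received the test compound; injury was assessed with a standard scoring scheme three weeks (day 21) after treatment.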

[10] = tested on: heartshape false pickerelweed (Monochoria vaginalis (Burm.f.) C.Presl); assay: as above; details: paddy field soil application; active ingredient 1,000 g per 1 hectare; wettable powder added dropwise to water surface the day after sowing; examined on the 21st day after application
Outline: as §3

[11] = tested on: Japanese bulrush (Scirpus juncoides Roxb.); assay: as above; details: paddy field soil application; active ingredient 1,000 g per 1 hectare; wettable powder added dropwise to water surface the day after sowing; examined on the 21st day after application
Outline: as §3

Row | SMILES | herbicidal effect (index), Velvetleaf [1] | herbicidal effect (index), Green Foxtail [2] | herbicidal effect (index), Slender Amaranth [3] | herbicidal effect (index), Barnyardgrass [4] | herbicidal effect, Velvetleaf [5] | herbicidal effect, Green Foxtail [6] | herbicidal effect, Slender Amaranth [7] | herbicidal effect, Barnyardgrass [8] | herbicidal effect, Echinochloa oryzicola Vasing [9] | herbicidal effect, Monochoria vaginalis (Burm. f.) C. Presl [10] | herbicidal effect, Scirpus juncoides Roxb. [11]
1 | CCCS(=O)(=O)Oc1c(C(=O)c2ccc(C(F)(F)F)n(-c3cc(F)ccc3F)c2=O)cnn1C [IV-84] | 5 (90% or more of herbicidal effect and crop phytotoxicity) | 5 (90% or more of herbicidal effect and crop phytotoxicity) | 5 (90% or more of herbicidal effect and crop phytotoxicity) | 5 (90% or more of herbicidal effect and crop phytotoxicity) | 5 (90% or more of herbicidal effect and crop phytotoxicity) | 3 (50 to less than 70% of herbicidal effect and crop phytotoxicity) | 4 (70 to less than 90% of herbicidal effect and crop phytotoxicity) | 4 (70 to less than 90% of herbicidal effect and crop phytotoxicity) | 5 (90% or more of herbicidal effect and crop phytotoxicity) | 5 (90% or more of herbicidal effect and crop phytotoxicity) | 5 (90% or more of herbicidal effect and crop phytotoxicity)
2 | Cn1ncc(C(=O)c2ccc(C(F)(F)F)n(-c3ccc(F)c(F)c3)c2=O)c1O [IV-85] | 5 (90% or more of herbicidal effect and crop phytotoxicity) | 5 (90% or more of herbicidal effect and crop phytotoxicity) | 5 (90% or more of herbicidal effect and crop phytotoxicity) | 5 (90% or more of herbicidal effect and crop phytotoxicity) | 5 (90% or more of herbicidal effect and crop phytotoxicity) | 5 (90% or more of herbicidal effect and crop phytotoxicity) | 5 (90% or more of herbicidal effect and crop phytotoxicity) | 5 (90% or more of herbicidal effect and crop phytotoxicity) | 5 (90% or more of herbicidal effect and crop phytotoxicity) | 5 (90% or more of herbicidal effect and crop phytotoxicity) | 5 (90% or more of herbicidal effect and crop phytotoxicity)
3 | Cc1nn(C)c(O)c1C(=O)c1ccc(C(F)(F)F)n(-c2ccc(F)c(F)c2)c1=O [IV-86] | 5 (90% or more of herbicidal effect and crop phytotoxicity) | 5 (90% or more of herbicidal effect and crop phytotoxicity) | 5 (90% or more of herbicidal effect and crop phytotoxicity) | 5 (90% or more of herbicidal effect and crop phytotoxicity) | 5 (90% or more of herbicidal effect and crop phytotoxicity) | 4 (70 to less than 90% of herbicidal effect and crop phytotoxicity) | 5 (90% or more of herbicidal effect and crop phytotoxicity) | 5 (90% or more of herbicidal effect and crop phytotoxicity) | 5 (90% or more of herbicidal effect and crop phytotoxicity) | 5 (90% or more of herbicidal effect and crop phytotoxicity) | 4 (70 to less than 90% of herbicidal effect and crop phytotoxicity)
